Measured values taken from ChEMBL document CHEMBL1201862, “PubChem BioAssay data set” (2004).
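How tested: cells in 96-well plates exposed to compound for 48 hours at five concentrations. At the GI50, growth is halved.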 Activity calls are given as the source filed them. No stated cut-off is given here; in the data, active = GI50 up to about 1.1 µM and inactive = higher.

Tests used:
Assay in all cases: growth of human tumour cells (NCI), 48 h
UACC-257 = test system: UACC-257
SNB-19 = test system: SNB-19
LOX IMVI = test system: LOX IMVI
KM-20L2 = test system: KM-20L2
M19-MEL = test system: M19-MEL
HCT-116 = test system: HCT-116
TK-10 = test system: TK-10
NCI-H522 = test system: NCI-H522
SNB-78 = test system: SNB-78
ACHN = test system: ACHN
KM12 = test system: KM12
SN12C = test system: SN12C
IGROV-1 = test system: IGROV-1
OVCAR-5 = test system: OVCAR-5
NCI-H23 = test system: NCI-H23
CAKI-1 = test system: CAKI-1
OVCAR-3 = test system: OVCAR-3
A498 = test system: A498
NCI/ADR-RES = test system: NCI/ADR-RES
Hs-578T = test system: Hs-578T

Measured: GI50

CCOC(=O)c1c(CN2CCNCC2)nc2ccc(Cl)cc2c1-c1ccccc1
inactive: UACC-257 1.81 µM | SNB-19 12.8 µM | LOX IMVI 1.85 µM | KM-20L2 2.64 µM | M19-MEL 1.9 µM | HCT-116 3.07 µM | TK-10 5.07 µM | NCI-H522 4.38 µM | SNB-78 8.18 µM | ACHN 5.45 µM | KM12 3.44 µM | SN12C 4.92 µM | IGROV-1 5 µM | OVCAR-5 19.5 µM | NCI-H23 10.4 µM | CAKI-1 2.47 µM | OVCAR-3 6.95 µM | A498 7.26 µM

c1ccc2c(c1)N=C(c1cccc3ccccc13)CC(c1cccc3ccccc13)S2 (centres undefined)
inactive: UACC-257 14.7 µM | SNB-19 4.33 µM | LOX IMVI 3.48 µM | KM-20L2 3.24 µM | M19-MEL 5.53 µM | HCT-116 3.19 µM | TK-10 12.2 µM | NCI-H522 2.54 µM | SNB-78 5.53 µM | ACHN 10.2 µM | KM12 2.91 µM | SN12C 4.79 µM | IGROV-1 5.68 µM | OVCAR-5 6.9 µM | NCI-H23 3.57 µM | CAKI-1 4.43 µM | OVCAR-3 2.77 µM | A498 7.94 µM

CCC(C)OC(=O)C1C2CCC(O2)C1C(=O)O (centres undefined)
inactive: UACC-257 > 70.5 µM | SNB-19 > 100 µM | LOX IMVI > 41.9 µM | KM-20L2 > 44.9 µM | M19-MEL > 60.7 µM | HCT-116 > 40.6 µM | TK-10 > 100 µM | NCI-H522 > 100 µM | SNB-78 > 100 µM | ACHN > 72.4 µM | KM12 > 100 µM | SN12C > 100 µM | IGROV-1 > 100 µM | OVCAR-5 > 100 µM | NCI-H23 > 100 µM | CAKI-1 > 100 µM | OVCAR-3 > 100 µM | A498 > 47.3 µM

O=[N+]([O-])c1cc(C(F)(F)F)cc2n[se]nc12
inactive: UACC-257 2.16 µM | SNB-19 15.5 µM | LOX IMVI 5.53 µM | NCI/ADR-RES 2.12 µM | KM-20L2 6.81 µM | M19-MEL 3.33 µM | HCT-116 1.75 µM | TK-10 4.5 µM | NCI-H522 3.13 µM | SNB-78 12.3 µM | ACHN 2.65 µM | KM12 9.33 µM | SN12C 4.88 µM | IGROV-1 5.07 µM | OVCAR-5 13.1 µM | NCI-H23 3.93 µM | CAKI-1 4.6 µM | OVCAR-3 1.67 µM | A498 16.8 µM | Hs-578T 19.3 µM
